For assay [1], the system named is asexual-blood-stage P. falciparum. To be noted: cited from earlier work.
Assay [2] concerns the target P. falciparum translation (P. falciparum lysate). Kind of assay: P. falciparum in vitro translation (PfIVT) assay, lysate-based, luciferase reporter. To be noted: for PfIVT inhibition at 30 μM (%): single-point screen; for selectivity index/window, PfIVT compared to HsIVT: HsIVT IC50 over PfIVT IC50. In kind it is biochemical, Plasmodium falciparum. The source says:
(§1) Our P. falciparum in vitro translation (PfIVT) assay is built upon previously established assays ([14], [17]) and is summarized in Fig. 1A. In this assay, successful reconstitution of Plasmodium protein translation is reported via synthesis of a luciferase reporter. For PfIVT, two independent untranslated regions (UTRs), previously shown to promote strong levels of translation ([17]), were introduced upstream and downstream of the luciferase. The 5′ UTR from P. falciparum histidine-rich protein 3 (PfHrp3) ([18]) was introduced upstream of the reporter gene, and the 3′ UTR from P. falciparum histidine-rich protein 2 (PfHrp2) gene ([19]) was introduced downstream. For the reporter construct to support our complementary human IVT assay (HsIVT), the 5′ UTR was replaced with an internal ribosome entry site (IRES) from encephalomyocarditis virus (EMCV) ([20]) and the 3′ UTR was replaced with a poly(A) tail ([21]). […] Finally, a 30-bp poly(A) tail, present within the vector and downstream of the luciferase gene, was inserted to enhance mRNA stability ([21]).
(§2) Translationally active P. falciparum or human embryonic kidney (HEK) 293F lysates were supplemented with accessory, helper, amino acid, and energy regeneration solutions (see Materials and Methods for details). In vitro translation reactions were initiated by the addition of purified mRNA to each reaction well. Using this basic assay format, a number of parameters were assessed and optimized, namely, assay temperature, time, mRNA concentration, and reaction volume (summarized in Fig. S2 in the supplemental material). In addition, we compared the luminescence signal of the CBG firefly luciferase with CBG99, derived from the click beetle […] ([18]).
3D7 parasites were synchronized following two rounds of treatment with D-sorbitol (5%), as previously described ([40]). The hematocrit was reduced from 5% (for standard culture) to 1.5 to 2% and cultures were transferred into HYPERflasks (Corning). Fresh medium was added once or twice daily. […] Harvested red blood cells (infected) were lysed by incubation in 0.1% (wt/vol) saponin on ice for 10 min with gentle agitation. Free parasites were harvested by centrifugation (2,800 × g, 10 min, 4°C) and washed 3 times in wash buffer (WB; 100 mM potassium acetate, 2.5 mM magnesium acetate, 45 mM HEPES [pH 7.4], 250 mM sucrose, 2 mM dithiothreitol, and 15 μM leupeptin) to remove lysed red blood cell debris. The resulting pellet was resuspended in 1 volume of WB supplemented with cOmplete EDTA-free protease inhibitor cocktail (Roche; 1 tablet/20 mL) and human RNase A inhibitor (Sigma; 5 U/mL). Parasite lysis was achieved by nitrogen cavitation using a prechilled 45-mL Parr cell disruption vessel (1,500 lb/in^2, 60 min, 4°C). To clarify the lysate, it was centrifuged (10,000 × g, 15 min, 4°C), and the supernatant was collected, transferred into fresh tubes, and centrifuged (30,000 × g, 15 min, 4°C). As a quality assurance step for each lysate, the RNA content of the resulting supernatant was determined using a NanoDrop spectrophotometer (Shimadzu). Supernatants with RNA levels of >250 ng/μL were aliquoted (100 μL), flash frozen in liquid nitrogen, and stored at −80°C.
In general terms: Reporter assays use an easily measured gene product as a stand-in for the process of interest.

Another assay has as its target CBG99 luciferase (Pyrophorus plagiophthalamus, UniProt Q7M4K1). Kind of assay: Luciferase counterscreen (false-positive counterscreen). In kind it is biochemical, click beetle. Here is the method: Hits identified in our primary assay screen were assessed for their potential to interfere with the cbg99 luciferase reporter. For this counterscreen, the master mix containing all the components required for translation (as described above) was incubated for 210 min at 32°C, resulting in the in vitro translation of cbg99 luciferase. The produced luciferase was then incubated with test compounds for 5 min prior to the addition of luciferase reaction buffer. […] Hits from the primary screen were assessed as luciferase inhibitors in 8-point dose-dependent assays ranging from 30 μM to 13.7 nM (1:3 dilutions). Levels of luciferase inhibition were determined relative to the positive control.
(In general: The purpose of a counterscreen is to sort out artefacts and off-target activity.)

Assay [3] concerns the target human translation (HEK 293F lysate). Kind of assay: Human in vitro translation (HsIVT) assay, HEK 293F lysate, luciferase reporter. In kind it is biochemical.
Text: as §1, §2
FreeStyle human embryonic kidney (HEK) 293F cells (Thermo Fisher Scientific) were grown in 500-mL polycarbonate Erlenmeyer vented flasks (Corning) containing FreeStyle 293 expression medium (Life Technologies) upon reaching a density of approximately 2 × 10^6. Cells were then centrifuged at 1,000 × g for 10 min at 4°C, the medium was discarded, and the resulting pellet was washed once in buffer II containing 20 U of human placental RNase inhibitor (Sigma-Aldrich) and cOmplete EDTA-free inhibitor cocktail (Roche) before being centrifuged at 2,800 × g for 10 min. Clarified HEK cell lysate was obtained in the same way as described for P. falciparum lysate.
PfIVT and HsIVT reactions (5 μL final volume) were performed in 384-well plates (Corning) containing 50% lysate from cells (either P. falciparum or HEK 293F), 10% amino acid solution (final concentration of 400 μM for each amino acid in 60 mM KOH; biotechrabbit), 10% energy recovery solution (final assay concentrations of 40 mM HEPES [pH 7.4], 1.5 mM ATP, 0.15 mM GTP, […] creatine phosphate, and 40 U/mL creatine phosphokinase), 10% helper solution (final assay concentrations of 200 μM cystine, 2% polyethylene glycol 3000 [PEG 3000], 1 mM spermidine, 0.5 mM folinic acid, and 15 μM leupeptin), 10% supplemental salt solution (22.5 mM HEPES [pH 7.4], 50 mM potassium acetate, 1 mM magnesium acetate, 1 mM DTT, 1 U/mL human placental RNase inhibitor, 0.1 mM leupeptin), and 10% cbg99 luciferase mRNA (3,000 ng/mL). A master mix solution containing all components was prepared on ice prior to assays, and 5 μL was dispensed into wells using an automated Integra VIAFLO 16-channel 12.5-μL pipette.

Where [4] appears, read: P. falciparum Dd2 cell line, read-out: P. falciparum asexual-blood-stage EC50.
[5] abbreviates: Pandemic Box hits, weighted mean ± SD of two technical replicates, read-out: IC50 value (μM) HsIVT.
Where [6] appears, read: Pandemic Box hits, 8-point, weighted mean ± SD of two technical replicates, read-out: IC50 value (μM) PfIVT.
[7] abbreviates: read-out: IC50 value (μM) Counterscreen; Pathogen Box hits; weighted mean ± SD of two technical replicates.
[8] abbreviates: P. falciparum 3D7 cell line, read-out: P. falciparum asexual-blood-stage EC50.
The mark [9] stands for this setting: Pathogen Box hits, weighted mean ± SD of two technical replicates, read-out: IC50 value (μM) HsIVT.
The mark [10] stands for this setting: Pathogen Box hits, 8-point, weighted mean ± SD of two technical replicates, read-out: IC50 value (μM) PfIVT.
[11] abbreviates: Pathogen Box hits; weighted mean ± SD of two technical replicates; read-out: IC50 value (μM) Counterscreen.

Several values for one entry are separate records, joined by “and”; a condition that tells them apart may be missing. Identical values can stand only once. Like-named read-outs stand apart in the source and are kept apart here.

Chain of CBG99 luciferase (Q7M4K1 entry or part of it): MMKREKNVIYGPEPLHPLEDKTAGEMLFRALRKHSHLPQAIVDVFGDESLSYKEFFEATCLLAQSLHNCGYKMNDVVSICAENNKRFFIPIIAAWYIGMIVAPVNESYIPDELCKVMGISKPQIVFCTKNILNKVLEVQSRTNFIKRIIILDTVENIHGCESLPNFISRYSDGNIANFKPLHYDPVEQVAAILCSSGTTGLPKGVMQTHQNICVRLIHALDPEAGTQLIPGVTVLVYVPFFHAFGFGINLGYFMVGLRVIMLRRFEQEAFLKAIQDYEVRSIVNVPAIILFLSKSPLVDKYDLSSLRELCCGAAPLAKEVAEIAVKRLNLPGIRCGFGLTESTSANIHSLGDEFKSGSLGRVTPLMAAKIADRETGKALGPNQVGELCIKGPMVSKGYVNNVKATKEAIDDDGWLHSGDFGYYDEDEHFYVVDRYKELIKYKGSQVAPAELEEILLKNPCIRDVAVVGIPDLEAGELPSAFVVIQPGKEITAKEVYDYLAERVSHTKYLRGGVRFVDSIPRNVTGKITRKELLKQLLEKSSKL

With `C[C@@H]1C[C@H](C)C[C@H](C)[C@@H](O)CC(=O)O[C@H]([C@@H]2CCC[C@H]2C(=O)O)C/C=C/C=C(/C#N)[C@H](O)[C@@H](C)C1` [Borrelidin, borrelidin, reference compound], in assay [1] (ref 50 (supplement numbering), read-out: EC50 values, µM PfABS (Table S1)), the EC50 is 0.002 µM. Further, the IC50 in assay [2] (established inhibitors of protein translation, read-out: IC50 values, µM PfIVT (Table S1)) came to 1.2 µM.

`Cc1ccc(NC(=O)c2cc(Cl)ccc2O)cc1` [MMV1578897]: in assay [1] (setting [4]), the EC50 was 5 µM. The “PfIVT inhibition at 30 μM (%)” value in assay [2] (Pandemic Box) is 93.4%.

For `Nc1nc(NC2Cc3ccc(F)cc3C2)nc(N2CCCCC2)n1` (centres unmarked) [MMV1580839], the IC50 on CBG99 luciferase (read-out: IC50 value (μM) Counterscreen; Pandemic Box hits; weighted mean ± SD of two technical replicates) turned out to be 8.3 ± 0.08 µM; in assay [3] (setting [5]), 7.6 ± 0.12 µM; in assay [3] (read-out: HsIVT IC50 (text)) it was 8 µM; in assay [2] (setting [6]), 0.8 ± 0.08 µM; in assay [2] (Table 3, read-out: PfIVT IC50), 0.8 ± 0.08 µM. In addition, the EC50 in assay [1] (setting [4]) was 5 µM. The “PfIVT IC50 (μM)” value in assay [2] was “submicromolar potency”. For the same compound, the “PfIVT inhibition at 30 μM (%)” value in assay [2] (Pandemic Box) turned out to be 73.3%.

As for `O=C(Nc1c(O)cccc1-c1nc2c(C(=O)O)cccc2o1)c1cc(-c2ccccc2)on1` [MMV676008], the half-inhibitory concentration (IC50) on CBG99 luciferase (setting [7]) came to 21 ± 0.6 µM; in assay [3] (setting [9]), 12 ± 0.4 µM; in assay [2] (setting [10]), 0.4 ± 0.08 µM; in assay [2] (Table 3, read-out: PfIVT IC50), 0.4 ± 0.08 µM; in assay [2] (read-out: PfIVT IC50 (text)) it was 0.04 µM. Besides, the 50% effective concentration (EC50) is > 20 µM in assay [1] (setting [8]) and > 25 µM in assay [1] (Table 3 footnote: 3D7, read-out: EC50 against P. falciparum (text)). The “selectivity index/window, PfIVT compared to HsIVT” value (from here on “selectivity index/window, PfIVT”) in assay [2] is reported as ≥ 30 fold. The “PfIVT inhibition at 30 μM (%)” value in assay [2] (Pathogen Box) is recorded as 74.9%.

On to `Cc1ccc2c(c1C)NC(=O)C21NN=C(c2ccccc2)S1` (centres unmarked) [MMV019189], for which the IC50 on CBG99 luciferase (setting [7]) was 7 µM and > 30 µM; in assay [3] (setting [9]), 7.7 ± 0.3 µM; in assay [2] (setting [10]) it was 0.03 ± 0.009 µM; in assay [2] (Table 3, read-out: PfIVT IC50), 0.03 ± 0.009 µM. Moreover, in assay [1] (setting [8]), the concentration for a half-maximal effect (EC50) was 0.75 µM. In addition, in assay [2], the “selectivity index/window, PfIVT” value is recorded as ≥ 30 fold. Further, the “PfIVT inhibition at 30 μM (%)” value in assay [2] (Pathogen Box) turned out to be 84.4%.

As for `Cc1c[nH]c(CCNC(=O)c2cc(-c3ccc(Cl)cc3)cs2)n1` [MMV676350], the IC50 on CBG99 luciferase (setting [11]) was > 30 µM; in assay [3] (setting [9]), 6.7 ± 0.13 µM; in assay [2] (setting [10]), 16 ± 0.8 µM. In addition, the “PfIVT inhibition at 30 μM (%)” value in assay [2] (Pathogen Box) was 65.1%.

As for `O=C(NCCN1CCCC1)c1cc(NCCN2CCOCC2)nc2ccc(Cl)cc12` [MMV634140], the IC50 on CBG99 luciferase (setting [7]) was > 30 µM; in assay [3] (setting [9]) it was > 30 µM; in assay [2] (setting [10]), 2.9 ± 0.09 µM; in assay [2] (Table 3, read-out: PfIVT IC50), 3 ± 0.09 µM. Besides, the EC50 in assay [1] (setting [8]) was 0.09 µM; in assay [1] (asexual-blood-stage P. falciparum, Table 3 footnote: 3D7, read-out: ABS EC50 (text)), 0.041 µM. For the same compound, in assay [2] (Pathogen Box), the “PfIVT inhibition at 30 μM (%)” value was 88.4%.

`O=C(Nc1ccc(C(F)(F)F)c(C(F)(F)F)c1)c1cc(Cl)ccc1O` [MMV687807]: the IC50 on CBG99 luciferase (setting [7]) came to 25 ± 0.8 µM; in assay [3] (setting [9]) it was 0.5 ± 0.006 µM; in assay [2] (setting [10]) it was 0.09 ± 0.007 µM; in assay [2] (Table 3, read-out: PfIVT IC50), 0.09 ± 0.007 µM. The EC50 in assay [1] (setting [8]) was 1.8 µM. For the same compound, the “selectivity index/window, PfIVT” value in assay [2] is recorded as ≤ 5 fold. The “PfIVT inhibition at 30 μM (%)” value in assay [2] (Pathogen Box) was 95.1%.

On to `O=C(Nc1nc(-c2ccccn2)cs1)c1cncn1-c1ccccc1` [MMV676512], for which the IC50 on CBG99 luciferase (setting [11]) was > 30 µM; in assay [3] (setting [9]) it was 22 ± 0.46 µM; in assay [2] (setting [10]) it was > 30 µM. Moreover, the “PfIVT inhibition at 30 μM (%)” value in assay [2] (Pathogen Box) is 54.2%.

As for `COc1cc(C2=NCCN2)ccc1-n1cc(-c2cccc(C3=NCCN3)c2)nn1` [MMV688474], the IC50 on CBG99 luciferase (setting [11]) is > 30 µM; in assay [3] (setting [9]), 14 ± 0.07 µM; in assay [2] (setting [10]) it was 16 ± 0.9 µM. Moreover, the “PfIVT inhibition at 30 μM (%)” value in assay [2] (Pathogen Box) is 78.4%.

As for `O=C(NCCN1CCCC1)c1cc(NCCCCN2CCC(F)(F)CC2)nc2ccc(Cl)cc12` [MMV667494], the IC50 on CBG99 luciferase (setting [7]) was > 30 µM; in assay [3] (setting [9]), > 30 µM; in assay [2] (setting [10]) it was 0.3 ± 0.09 µM; in assay [2] (Table 3, read-out: PfIVT IC50), 0.3 ± 0.09 µM. For the same compound, in assay [1] (setting [8]), the concentration for a half-maximal effect (EC50) was 0.01 µM. Further, the “selectivity index/window, PfIVT” value in assay [2] is ≥ 30 fold. Moreover, the “PfIVT inhibition at 30 μM (%)” value in assay [2] (Pathogen Box) was 97.7%.

As to `O=C(Nc1nnc(-c2ccccc2)o1)c1ccc(F)cc1` [MMV1578578], the IC50 amounted to 1.3 ± 0.08 µM on CBG99 luciferase (Pandemic Box hits; weighted mean ± SD of two technical replicates; read-out: IC50 value (μM) Counterscreen), 10 ± 0.12 µM in assay [3] (setting [5]) and 3.7 ± 0.07 µM in assay [2] (setting [6]). For the same compound, the “PfIVT inhibition at 30 μM (%)” value in assay [2] (Pandemic Box) was 74.6%.

One may read the EC50 as the concentration that produces a half-maximal response. A word on the IC50: it is the concentration at which inhibition is half-maximal.
